From paper PMC4331650 (Biochimica et Biophysica Acta, 2014)
Residue numbers refer to the chain shown, from its start.

Experiments:
rat CLC-K1 = conditions: HEK293 cells; all concentrations tested, from 0.3 to 2000 μM; cited from earlier work
hCLC-Kb = conditions: [NFA]ext up to 2 mM; cited from earlier work
N257A CLC-K1/barttin = target: T1, N257A CLC-K1/barttin (Rattus norvegicus, UniProt Q06393, N257A); assay: NFA effect on N257A CLC-K1 with barttin, voltage clamp in Xenopus oocytes; format: cell-based; conditions: 200 μM NFA
T1 sequence (Q06393 1-687 N257A): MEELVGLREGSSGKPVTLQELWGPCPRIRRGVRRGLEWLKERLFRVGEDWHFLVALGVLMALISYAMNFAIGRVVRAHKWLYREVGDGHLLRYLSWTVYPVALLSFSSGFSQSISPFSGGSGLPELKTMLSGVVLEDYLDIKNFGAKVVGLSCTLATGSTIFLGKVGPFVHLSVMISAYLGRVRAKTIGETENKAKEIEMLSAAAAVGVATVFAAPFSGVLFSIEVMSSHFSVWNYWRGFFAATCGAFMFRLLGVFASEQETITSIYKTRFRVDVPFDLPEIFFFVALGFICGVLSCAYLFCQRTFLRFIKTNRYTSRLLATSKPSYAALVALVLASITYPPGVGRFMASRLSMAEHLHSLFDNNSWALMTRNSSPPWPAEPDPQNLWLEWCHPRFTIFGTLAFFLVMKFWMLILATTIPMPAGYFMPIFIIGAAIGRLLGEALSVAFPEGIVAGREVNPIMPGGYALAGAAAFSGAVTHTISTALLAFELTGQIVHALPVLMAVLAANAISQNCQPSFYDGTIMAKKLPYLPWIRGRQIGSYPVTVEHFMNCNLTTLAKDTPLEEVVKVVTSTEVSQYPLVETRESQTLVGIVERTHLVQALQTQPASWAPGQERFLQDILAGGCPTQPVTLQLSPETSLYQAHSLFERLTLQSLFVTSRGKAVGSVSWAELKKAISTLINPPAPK
T1 sequence (Q8WZ55 1-320 Y98A partner): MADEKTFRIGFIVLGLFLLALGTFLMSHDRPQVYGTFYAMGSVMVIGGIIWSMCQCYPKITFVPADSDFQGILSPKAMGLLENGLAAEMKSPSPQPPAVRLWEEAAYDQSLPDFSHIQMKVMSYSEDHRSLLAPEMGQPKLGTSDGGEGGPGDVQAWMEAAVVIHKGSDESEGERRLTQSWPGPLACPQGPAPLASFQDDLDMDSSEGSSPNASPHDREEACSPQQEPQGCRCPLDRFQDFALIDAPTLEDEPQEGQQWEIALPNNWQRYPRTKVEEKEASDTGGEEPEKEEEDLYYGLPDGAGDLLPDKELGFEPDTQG

F256A CLC-K1/barttin = target: T2, F256A CLC-K1/barttin (Rattus norvegicus, UniProt Q06393, F256A); assay: NFA effect on F256A CLC-K1/barttin, voltage clamp in Xenopus oocytes; format: cell-based
T2 sequence (Q06393 1-687 F256A): T1 sequence (Q06393 1-687 N257A) with F256A, A257N
T2 sequence (Q8WZ55 1-320 Y98A partner): T1 sequence (Q8WZ55 1-320 Y98A partner)

WT CLC-Ka = target: T3, WT CLC-Ka (Homo sapiens, UniProt P51800); assay: NFA modulation of WT CLC-Ka currents, voltage clamp in Xenopus oocytes; format: cell-based
T3 sequence (P51800 1-687): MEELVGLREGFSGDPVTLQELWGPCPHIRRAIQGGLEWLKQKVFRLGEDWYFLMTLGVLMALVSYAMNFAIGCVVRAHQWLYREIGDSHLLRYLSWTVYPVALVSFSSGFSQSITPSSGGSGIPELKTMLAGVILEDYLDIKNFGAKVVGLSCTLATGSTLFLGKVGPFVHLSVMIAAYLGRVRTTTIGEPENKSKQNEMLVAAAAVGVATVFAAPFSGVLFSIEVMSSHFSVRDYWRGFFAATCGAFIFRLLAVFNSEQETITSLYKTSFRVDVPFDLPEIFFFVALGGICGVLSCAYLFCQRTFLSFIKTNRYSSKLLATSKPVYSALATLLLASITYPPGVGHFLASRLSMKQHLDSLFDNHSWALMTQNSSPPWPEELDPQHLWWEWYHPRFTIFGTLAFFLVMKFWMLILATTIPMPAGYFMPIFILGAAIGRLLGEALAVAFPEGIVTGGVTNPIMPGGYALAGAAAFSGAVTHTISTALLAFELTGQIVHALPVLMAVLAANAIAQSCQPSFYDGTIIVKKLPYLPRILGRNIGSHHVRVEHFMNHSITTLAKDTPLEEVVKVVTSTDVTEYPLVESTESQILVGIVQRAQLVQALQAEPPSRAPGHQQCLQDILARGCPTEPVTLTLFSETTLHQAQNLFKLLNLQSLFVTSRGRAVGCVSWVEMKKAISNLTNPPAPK
T3 sequence (Q8WZ55 1-320 Y98A partner): T1 sequence (Q8WZ55 1-320 Y98A partner)

O=C(O)c1cccnc1Nc1cccc(C(F)(F)F)c1 [NFA, niflumic acid]
effect of NFA on currents (rat CLC-K1): inhibited | effect on hCLC-Kb (hCLC-Kb): potentiated | sensitivity to NFA compared with WT (N257A CLC-K1/barttin): only weakly more sensitive | effect of NFA on currents (F256A CLC-K1/barttin; 10 μM NFA, steady state currents not increased): transient potentiation | maximal potentiation (I1/I0) (F256A CLC-K1/barttin; transient potentiation extrapolated by single-exponential function): around 1.9 fold | current increase (WT CLC-Ka; 200 μM NFA, WT CLC-Ka in Xenopus oocytes): 3 fold | effect of NFA on currents (WT CLC-Ka; [NFA]ext > 500 μM): inhibited | maximal stimulation of currents (WT CLC-Ka; at 500 μM NFA, currents at 60 mV normalized to 0 NFA): 4 fold | effect of NFA on currents (WT CLC-Ka; very low [NFA]ext): not changed
